Reference: ChEMBL document CHEMBL5614417, “Discovery of AMPs from random peptides via deep learning-based model and biological activity validation” (Eur J Med Chem, 2024)
In brackets after ≈: the same amount, converted by molar mass. Activity calls are given as the source filed them. The calls are words filed in the database; no cut-off is given here. Where a SMILES comes first, the peptide text is derived from it.

How the values were obtained:
[1] = system: Staphylococcus aureus; assay: Antibacterial activity against Staphylococcus aureus ATCC 25923 incubated for 18 hrs by visual inspection method; assay type: functional
[2] = system: Staphylococcus epidermidis; assay: Antibacterial activity against Staphylococcus epidermidis ATCC 12228 incubated for 18 hrs by visual inspection method; assay type: functional
[3] = system: Bacillus subtilis; assay: Antibacterial activity against Bacillus subtilis ATCC 23857 incubated for 18 hrs by visual inspection method; assay type: functional
[4] = system: Escherichia coli; assay: Antibacterial activity against Escherichia coli ATCC 25922 incubated for 18 hrs by visual inspection method; assay type: functional
[5] = system: Acinetobacter baumannii; assay: Antibacterial activity against Acinetobacter baumannii ATCC 19606 incubated for 18 hrs by visual inspection method; assay type: functional
[6] = system: Klebsiella pneumoniae; assay: Antibacterial activity against Klebsiella pneumoniae ATCC 700603 incubated for 18 hrs by visual inspection method; assay type: functional
[7] = system: Staphylococcus aureus; assay: Antibacterial activity against methicillin resistant Staphylococcus aureus 1 incubated for 18 hrs by visual inspection method; assay type: functional
[8] = system: Staphylococcus aureus; assay: Antibacterial activity against methicillin resistant Staphylococcus aureus 2 incubated for 18 hrs by visual inspection method; assay type: functional
[9] = system: Staphylococcus aureus; assay: Antibacterial activity against methicillin resistant Staphylococcus aureus 3 incubated for 18 hrs by visual inspection method; assay type: functional
[10] = system: Staphylococcus aureus; assay: Antibacterial activity against methicillin resistant Staphylococcus aureus 4 incubated for 18 hrs by visual inspection method; assay type: functional
[11] = system: Escherichia coli; assay: Antibacterial activity against ESBL Escherichia coli 1 incubated for 18 hrs by visual inspection method; assay type: functional
[12] = system: Escherichia coli; assay: Antibacterial activity against ESBL Escherichia coli 3 incubated for 18 hrs by visual inspection method; assay type: functional
[13] = system: Escherichia coli; assay: Antibacterial activity against ESBL Escherichia coli 4 incubated for 18 hrs by visual inspection method; assay type: functional
[14] = system: Escherichia coli; assay: Antibacterial activity against ESBL Escherichia coli 5 incubated for 18 hrs by visual inspection method; assay type: functional
[15] = system: Acinetobacter baumannii; assay: Antibacterial activity against multidrug resistant Acinetobacter baumannii 1 incubated for 18 hrs by visual inspection method; assay type: functional
[16] = system: Acinetobacter baumannii; assay: Antibacterial activity against multidrug resistant Acinetobacter baumannii 2 incubated for 18 hrs by visual inspection method; assay type: functional
[17] = system: Acinetobacter baumannii; assay: Antibacterial activity against multidrug resistant Acinetobacter baumannii 4 incubated for 18 hrs by visual inspection method; assay type: functional
[18] = system: Acinetobacter baumannii; assay: Antibacterial activity against multidrug resistant Acinetobacter baumannii 5 incubated for 18 hrs by visual inspection method; assay type: functional
[19] = system: Erythrocyte; assay: Hemolytic activity in rat erythrocytes incubated for 1 hr; assay type: toxicity, cell-based
[20] = system: Staphylococcus aureus; assay: Antibacterial activity against Staphylococcus aureus ATCC 25923 incubated for 18 hrs in presence of 50 mM NaCl by visual inspection method; assay type: functional
[21] = system: Staphylococcus aureus; assay: Antibacterial activity against Staphylococcus aureus ATCC 25923 incubated for 18 hrs in presence of 100 mM NaCl by visual inspection method; assay type: functional
[22] = system: Staphylococcus aureus; assay: Antibacterial activity against Staphylococcus aureus ATCC 25923 incubated for 18 hrs in presence of 150 mM NaCl by visual inspection method; assay type: functional
[23] = system: Escherichia coli; assay: Antibacterial activity against Escherichia coli ATCC 25922 incubated for 18 hrs in presence of 50 mM NaCl by visual inspection method; assay type: functional
[24] = system: Escherichia coli; assay: Antibacterial activity against Escherichia coli ATCC 25922 incubated for 18 hrs in presence of 100 mM NaCl by visual inspection method; assay type: functional
[25] = system: Escherichia coli; assay: Antibacterial activity against Escherichia coli ATCC 25922 incubated for 18 hrs in presence of 150 mM NaCl by visual inspection method; assay type: functional
[26] = Hemolytic activity in rat erythrocytes at 1000 ug/ml incubated for 1 hr; assay type: toxicity, cell-based, Erythrocyte; settings: at 1000 µg/mL, read-out: Activity
[27] = system: Erythrocyte; assay: Hemolytic activity in rat erythrocytes at 250 ug/ml incubated for 1 hr; assay type: toxicity, cell-based; settings: dose 250 µg/ml
[28] = Stability in Sprague-Dawley rat serum assessed as retention rate at 62.5 ug/ml measured after 2 hrs by RP-HPLC method; assay type: ADME, cell-free; settings: at 62.5 µg/mL, read-out: Stability
[29] = system: Cell membrane; assay: Induction of cell membrane damage in Staphylococcus aureus assessed as decrease in red/green fluorescence ratio at 2 times MIC by DiOC2(3) fluorescent probe based assay; assay type: cell membranes
[30] = system: Cell membrane; assay: Disruption of outer membrane integrity in Escherichia coli assessed as increase in fluorescence intensity by measuring NPN uptake at 1 to 4 times MIC by fluorescence based analysis; assay type: cell membranes; settings: TDE = time-dependent effect
[31] = system: Cell membrane; assay: Disruption of outer membrane integrity in Escherichia coli assessed as increase in fluorescence intensity by measuring NPN uptake measured every min for 15 mins by fluorescence based analysis; assay type: cell membranes
[32] = system: Cell membrane; assay: Induction of inner membrane permeability in Escherichia coli ML-35 at 1 to 4 times MIC by ONPG dye based assay; assay type: cell membranes; settings: TDE = time-dependent effect
[33] = system: Cell membrane; assay: Induction of inner membrane permeability in Escherichia coli ML-35 measured every 5 mins for 90 mins by ONPG dye based assay; assay type: cell membranes
[34] = system: Cell membrane; assay: Induction of cell membrane damage in Staphylococcus aureus at 4 times MIC incubated for 30 mins by PI staining based confocal laser scanning microscopic analysis; assay type: cell membranes
[35] = system: Cell membrane; assay: Induction of cell membrane damage in Escherichia coli at 4 times MIC incubated for 30 mins by PI staining based confocal laser scanning microscopic analysis; assay type: cell membranes
[36] = system: Cell membrane; assay: Induction of cell membrane damage in Staphylococcus aureus assessed as change in morphology by measuring roughened membrane at 4 times MIC incubated for 5 hrs by SEM analysis; assay type: cell membranes
[37] = system: Cell membrane; assay: Induction of cell membrane damage in Escherichia coli assessed as change in morphology by measuring deformed membrane at 4 times MIC incubated for 5 hrs by SEM analysis; assay type: cell membranes
[38] = system: Staphylococcus aureus; assay: Bactericidal activity against Staphylococcus aureus at 4 times MIC measured after 2 hrs by time kill kinetic assay; assay type: functional
[39] = system: Escherichia coli; assay: Bactericidal activity against Escherichia coli at 4 times MIC measured after 2 hrs by time kill kinetic assay; assay type: functional
[40] = system: Staphylococcus aureus; assay: Bactericidal activity against Staphylococcus aureus at 2 times MIC measured after 6 hrs by time kill kinetic assay; assay type: functional, organism-based
[41] = system: Escherichia coli; assay: Bactericidal activity against Escherichia coli at 2 times MIC measured after 3 hrs by time kill kinetic assay; assay type: functional, organism-based
[42] = system: Staphylococcus aureus; assay: Inhibition of biofilm formation in Staphylococcus aureus at 8 times MIC incubated for 24 hrs by crystal violet staining based assay; assay type: functional
[43] = system: Staphylococcus aureus; assay: Inhibition of biofilm formation in Staphylococcus aureus at 16 times MIC incubated for 24 hrs by crystal violet staining based assay; assay type: functional
[44] = system: Staphylococcus aureus; assay: Inhibition of biofilm formation in Staphylococcus aureus at 2 times MIC incubated for 24 hrs by crystal violet staining based assay; assay type: functional
[45] = system: Staphylococcus aureus; assay: Inhibition of biofilm formation in Staphylococcus aureus at 4 times MIC incubated for 24 hrs by crystal violet staining based assay; assay type: functional
[46] = system: Staphylococcus aureus; assay: Antibacterial activity against Staphylococcus aureus infected in BALB/c mouse at 10 to 20 mg/kg administered every 4 hrs for 3 doses and measured after 4 hrs post last dose; assay type: functional, organism-based; settings: dose 10-20 mg/kg, time 16.0 hrs
[47] = Toxicity in BALB/c mouse assessed as heart damage at 400 mg/kg, ip measured after 48 hrs by H and E staining based assay; assay type: organism-based; settings: in vivo
[48] = Toxicity in BALB/c mouse assessed as spleen damage at 400 mg/kg, ip measured after 48 hrs by H and E staining based assay; assay type: organism-based; settings: in vivo
[49] = Toxicity in BALB/c mouse assessed as kidney damage at 400 mg/kg, ip measured after 48 hrs by H and E staining based assay; assay type: organism-based; settings: in vivo

CC[C@H](C)[C@H](NC(=O)[C@H](Cc1ccccc1)NC(=O)[C@@H](N)Cc1c[nH]c2ccccc12)C(=O)N[C@H](C(=O)N[C@@H](Cc1c[nH]c2ccccc12)C(=O)N[C@@H](Cc1c[nH]cn1)C(=O)N[C@@H](Cc1c[nH]c2ccccc12)C(=O)N[C@@H](CCCNC(=N)N)C(=O)N[C@@H](CCCCN)C(=O)N[C@H](C(=O)N1CCC[C@H]1C(=O)N1CCC[C@H]1C(=O)N[C@@H](CCCCN)C(N)=O)[C@@H](C)CC)[C@@H](C)CC (H-WFIIWHWRKIPPK-NH2) gave an MIC [1] of 7.5 µg/mL (≈ 4.15 µM), an MIC [2] of 3.75 µg/mL (≈ 2.08 µM) and an MIC [3] of 3.75 µg/mL (≈ 2.08 µM). It also gave an MIC [4] of 15 µg/mL (≈ 8.3 µM), an MIC [5] of 7.5 µg/mL (≈ 4.15 µM) and an MIC [6] of 30 µg/mL (≈ 16.6 µM). For the same compound, the MIC [7] was 7.5 µg/mL (≈ 4.15 µM), the MIC [8] was 7.5 µg/mL (≈ 4.15 µM) and the MIC [9] was 7.5 µg/mL (≈ 4.15 µM). The MIC [10] was 7.5 µg/mL (≈ 4.15 µM), the MIC [11] was 15 µg/mL (≈ 8.3 µM) and the MIC [12] was 15 µg/mL (≈ 8.3 µM). The MIC [13] was 15 µg/mL (≈ 8.3 µM), the MIC [14] was 15 µg/mL (≈ 8.3 µM) and the MIC [15] was 7.5 µg/mL (≈ 4.15 µM). It also gave an MIC [16] of 7.5 µg/mL (≈ 4.15 µM), an MIC [17] of 7.5 µg/mL (≈ 4.15 µM) and an MIC [18] of 7.5 µg/mL (≈ 4.15 µM). It also gave an HC5 [19] of 416.15 µg/mL, an MIC [20] of 7.5 µg/mL and an MIC [21] of 7.5 µg/mL. The MIC [22] was 7.5 µg/mL, the MIC [23] was 15 µg/mL and the MIC [24] was 15 µg/mL. For the same compound, the MIC [25] was 15 µg/mL, the hemolysis at 1 h, 1000 ug/ml [26] was 10.8% and the Activity [27] was “Non-Toxic”. For the same compound, the remaining at 2 h, 62.5 ug/ml [28] was 41.2%, the Activity [29] was “Active” and the Activity [30] was “Tde”. For the same compound, the Activity [31] was “Dose-Dependent Effect”, the Activity [32] was “Tde” and the Activity [33] was “Dose-Dependent Effect”. For the same compound, the Activity [34] was “Active”, the Activity [35] was “Active” and the Activity [36] was “Active”. For the same compound, the Activity [37] was “Active”, the Activity [38] was 100% and the Activity [39] was 100%. For the same compound, the Activity [40] was “Active”, the Activity [41] was “Active” and the “inhibition (INH)” value [42] was greater than 90%. The “inhibition (INH)” value [43] was greater than 90%, the “inhibition (INH)” value [44] was 20.76% and the “inhibition (INH)” value [45] was 32.46%. For the same compound, the Activity [46] was “Active”, the Activity [47] was “Non-Toxic” and the Activity [48] was “Non-Toxic”. For the same compound, the Activity [49] was “Non-Toxic”.
